From patent US12570650B2, “6-substituted pyridazine compounds as SMARCA2 and/or SMARCA4 degraders” (Aurigene Oncology Limited, priority 2020, dated 2026)

What was measured:
Format in all cases: cell-based
[1] = target: T1, SMARCA4 (Homo sapiens, UniProt P51532); assay: SMARCA4 degradation in VCaP cells by Western blot; conditions: 16 hours
T1 construct: Determination of SMARCA2 and SMARCA4 Degradation in VCaP Cells by Western Blot; endogenous in cells; host or cells: VCaP (ATCC CRL-2876)
Procedure, shortened: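 VCaP cells treated with compounds diluted from DMSO stocks, final DMSO ≤0.3%; equal protein analysed by SDS-PAGE Western blot. Degradation = 100 − (normalized SMARCA4 band in treated/DMSO sample)×100.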

[2] = target: T2, SMARCA2 (Homo sapiens, UniProt P51531); assay: SMARCA2 degradation in VCaP cells by Western blot; conditions: 16 hours
T2 construct: Determination of SMARCA2 and SMARCA4 Degradation in VCaP Cells by Western Blot; endogenous in cells; host or cells: VCaP (ATCC CRL-2876)
Procedure, shortened: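 VCaP cells were treated with compound for 16 hours, with DMSO at no more than 0.3% final. Lysates were immunoblotted for SMARCA2, using beta-tubulin as loading control. % degradation = 100 − (normalized band intensity treated/normalized band intensity DMSO)×100.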

[3] = tested on: SK-MEL-5 cells; assay: Anti proliferative activity, Cell Titer Glo assay, SK-MEL-5; conditions: Homo sapiens, SK-MEL-5, SK-MEL-5 cells, retreatment Day 4, terminated day 8, CellTiter-Glo
[4] = tested on: RERF-LC-A1 cell line; assay: Anti proliferative activity, Cell Titer Glo assay, RERF-LC-A1; conditions: 144 h; RERF-LC-A1 cells, terminated day 6 without retreatment, CellTiter-Glo
Experimental: Example-P3: Determination of Anti Proliferative Activity of Compounds by Cell Titer Glo®(Promega) Assay
Cells were seeded into 96-well plates and the plate was incubated in 37 degrees incubator overnight. The next day, compounds were diluted 3-fold to cover 9-point concentration range in DMSO. Intermediate plate dilution was prepared in media followed with compound treatment in cells. Retreatment of cells with compound dilutions was performed on Day 4 and assay was terminated on day 8 for SK-MEL-5 cells using CellTiter-Glo and the plate was kept on orbital shaker for 20 minutes at RT. Assay was terminated on day 6 for RERF-LC-A1 without a compound retreatment. Luminescence signal was recorded on VICTOR^3 instrument. Percent inhibition of proliferation was calculated at each concentration and plotted against the compound concentration. EC50 value was calculated using GraphPad software.
Herein the group “++” refers to EC50 (RERF-LC-A1) values lower than 100 nM and “+” refers to EC50 (RERF-LC-A1) values greater than 100 nM.

T2 sequence (P51531 whole entry): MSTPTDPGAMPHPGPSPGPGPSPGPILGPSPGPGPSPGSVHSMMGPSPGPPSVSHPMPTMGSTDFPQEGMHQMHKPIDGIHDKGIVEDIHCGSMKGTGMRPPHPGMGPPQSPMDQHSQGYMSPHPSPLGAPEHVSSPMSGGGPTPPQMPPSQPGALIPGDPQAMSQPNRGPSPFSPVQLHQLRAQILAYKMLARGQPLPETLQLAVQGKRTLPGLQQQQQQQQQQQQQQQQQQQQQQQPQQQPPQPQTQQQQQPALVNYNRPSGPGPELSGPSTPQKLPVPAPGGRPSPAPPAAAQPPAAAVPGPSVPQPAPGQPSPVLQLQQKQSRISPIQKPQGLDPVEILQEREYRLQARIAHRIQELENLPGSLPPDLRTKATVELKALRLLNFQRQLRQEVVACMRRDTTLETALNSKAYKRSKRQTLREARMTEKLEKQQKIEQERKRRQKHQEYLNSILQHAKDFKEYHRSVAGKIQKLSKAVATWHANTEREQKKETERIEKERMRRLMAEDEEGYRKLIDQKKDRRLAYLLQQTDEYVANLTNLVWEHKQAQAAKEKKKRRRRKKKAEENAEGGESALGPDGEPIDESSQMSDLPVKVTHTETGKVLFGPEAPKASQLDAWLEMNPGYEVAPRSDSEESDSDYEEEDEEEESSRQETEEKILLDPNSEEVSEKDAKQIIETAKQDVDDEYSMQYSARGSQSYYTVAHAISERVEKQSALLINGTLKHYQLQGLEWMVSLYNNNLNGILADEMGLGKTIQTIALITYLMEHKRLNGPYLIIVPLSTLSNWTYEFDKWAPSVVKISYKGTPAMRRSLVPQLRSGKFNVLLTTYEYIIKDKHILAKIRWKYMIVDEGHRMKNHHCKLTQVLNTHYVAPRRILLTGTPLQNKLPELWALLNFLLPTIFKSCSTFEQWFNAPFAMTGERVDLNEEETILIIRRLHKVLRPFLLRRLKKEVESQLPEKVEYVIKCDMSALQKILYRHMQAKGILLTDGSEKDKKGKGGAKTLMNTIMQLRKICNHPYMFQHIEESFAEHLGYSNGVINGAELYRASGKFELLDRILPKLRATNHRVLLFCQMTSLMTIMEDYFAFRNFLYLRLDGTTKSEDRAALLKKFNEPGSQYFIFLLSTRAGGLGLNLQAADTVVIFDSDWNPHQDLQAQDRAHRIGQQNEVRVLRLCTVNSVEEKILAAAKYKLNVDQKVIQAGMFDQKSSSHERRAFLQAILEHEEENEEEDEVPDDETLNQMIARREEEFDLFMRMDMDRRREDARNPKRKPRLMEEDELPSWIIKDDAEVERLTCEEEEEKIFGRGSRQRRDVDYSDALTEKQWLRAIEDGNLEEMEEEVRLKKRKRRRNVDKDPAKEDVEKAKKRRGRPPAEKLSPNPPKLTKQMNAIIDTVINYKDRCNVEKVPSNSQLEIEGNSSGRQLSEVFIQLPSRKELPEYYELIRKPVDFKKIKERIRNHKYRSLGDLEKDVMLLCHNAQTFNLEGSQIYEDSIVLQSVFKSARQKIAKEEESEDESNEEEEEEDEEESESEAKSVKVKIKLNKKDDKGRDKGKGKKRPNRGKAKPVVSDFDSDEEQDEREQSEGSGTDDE
T1 sequence (P51532 whole entry): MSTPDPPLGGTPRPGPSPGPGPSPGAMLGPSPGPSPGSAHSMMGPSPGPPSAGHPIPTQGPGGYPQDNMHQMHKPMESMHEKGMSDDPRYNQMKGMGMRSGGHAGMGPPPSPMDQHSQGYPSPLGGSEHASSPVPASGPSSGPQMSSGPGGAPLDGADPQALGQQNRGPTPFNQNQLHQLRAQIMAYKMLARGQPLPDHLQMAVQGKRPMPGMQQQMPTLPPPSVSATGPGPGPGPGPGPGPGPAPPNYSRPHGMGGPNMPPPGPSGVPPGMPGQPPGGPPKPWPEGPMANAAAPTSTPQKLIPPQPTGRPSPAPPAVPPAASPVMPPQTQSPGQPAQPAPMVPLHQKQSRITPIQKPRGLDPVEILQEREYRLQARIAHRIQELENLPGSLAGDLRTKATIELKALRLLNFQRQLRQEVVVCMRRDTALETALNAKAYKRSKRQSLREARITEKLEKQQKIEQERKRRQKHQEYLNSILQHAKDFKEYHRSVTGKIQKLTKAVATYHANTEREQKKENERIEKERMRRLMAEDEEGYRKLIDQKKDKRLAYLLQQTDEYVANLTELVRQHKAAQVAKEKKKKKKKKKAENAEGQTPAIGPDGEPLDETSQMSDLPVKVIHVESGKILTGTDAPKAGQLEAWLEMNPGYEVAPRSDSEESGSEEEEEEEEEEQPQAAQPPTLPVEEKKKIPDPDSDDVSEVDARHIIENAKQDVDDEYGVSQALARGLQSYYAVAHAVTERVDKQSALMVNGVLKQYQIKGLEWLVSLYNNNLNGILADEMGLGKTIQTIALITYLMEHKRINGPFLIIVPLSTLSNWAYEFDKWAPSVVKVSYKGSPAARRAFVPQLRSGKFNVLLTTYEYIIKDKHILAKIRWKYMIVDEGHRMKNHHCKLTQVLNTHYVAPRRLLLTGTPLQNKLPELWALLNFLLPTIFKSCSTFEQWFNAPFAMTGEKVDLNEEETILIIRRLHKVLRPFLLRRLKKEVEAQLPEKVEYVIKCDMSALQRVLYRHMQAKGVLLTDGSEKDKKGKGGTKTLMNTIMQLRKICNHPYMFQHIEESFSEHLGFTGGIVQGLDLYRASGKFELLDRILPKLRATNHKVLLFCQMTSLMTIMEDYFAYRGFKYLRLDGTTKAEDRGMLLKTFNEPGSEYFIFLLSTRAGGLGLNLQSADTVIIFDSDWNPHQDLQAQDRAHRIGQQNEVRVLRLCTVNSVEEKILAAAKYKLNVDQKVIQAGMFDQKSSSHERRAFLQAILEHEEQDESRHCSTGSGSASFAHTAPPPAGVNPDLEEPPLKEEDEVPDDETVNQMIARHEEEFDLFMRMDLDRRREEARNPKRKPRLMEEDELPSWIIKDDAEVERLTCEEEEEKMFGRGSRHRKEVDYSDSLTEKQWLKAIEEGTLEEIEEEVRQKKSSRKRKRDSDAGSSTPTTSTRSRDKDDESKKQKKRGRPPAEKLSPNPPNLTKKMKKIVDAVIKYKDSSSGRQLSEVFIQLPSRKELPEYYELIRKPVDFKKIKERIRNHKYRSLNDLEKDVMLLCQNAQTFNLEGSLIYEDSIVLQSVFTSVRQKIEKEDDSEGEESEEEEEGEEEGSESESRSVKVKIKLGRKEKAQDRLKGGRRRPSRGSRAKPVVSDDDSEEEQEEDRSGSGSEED

| SMILES | Percent degradation (at 100 nM) SMARCA4 [1] | Percent degradation (at 100 nM) SMARCA2 [2] | EC50 [3] | EC50 [4] |
| --- | --- | --- | --- | --- |
| Cc1ncsc1-c1ccc([C@H](C)NC(=O)[C@@H]2C[C@@H](O)CN2C(=O)[C@@H](NC(=O)CN2CCC(c3ccc(-c4cnnc(-c5ccccc5O)c4)cc3)CC2)C(C)(C)C)cc1 [Compound 11, (2S,4R)-4-hydroxy-1-((S)-2-(2-(4-(4-(6-(2-hydroxyphenyl)pyridazin-4-yl)phenyl)piperidin-1-yl)acetamido)-3,3-dimethylbutanoyl)-N-((S)-1-(4-(4-methylthiazol-5-yl)phenyl)ethyl)pyrrolidine-2-carboxamide] | 0% | 91% | < 250 nM | < 100 nM |
| Cc1ncsc1-c1ccc(CNC(=O)[C@@H]2C[C@@H](O)CN2C(=O)[C@@H](NC(=O)CN2CCC(c3ccc(-c4cnnc(-c5ccccc5O)c4)cc3)CC2)C(C)(C)C)cc1 [Compound 12, (2S,4R)-4-hydroxy-1-((S)-2-(2-(4-(4-(6-(2-hydroxyphenyl)pyridazin-4-yl)phenyl)piperidin-1-yl)acetamido)-3,3-dimethylbutanoyl)-N-(4-(4-methylthiazol-5-yl)benzyl)pyrrolidine-2-carboxamide] | 0% | 75% | > 500 nM | < 100 nM |
| Cc1ncsc1-c1ccc([C@H](C)NC(=O)[C@@H]2C[C@@H](O)CN2C(=O)[C@@H](NC(=O)CN2CC3CCC(C2)N3c2ccc(-c3cnnc(-c4ccccc4O)c3)cc2)C(C)(C)C)cc1 [Compound 24, (2S,4R)-4-hydroxy-1-((2S)-2-(2-(8-(4-(6-(2-hydroxyphenyl)pyridazin-4-yl)phenyl)-3,8-diazabicyclo[3.2.1]octan-3-yl)acetamido)-3,3-dimethylbutanoyl)-N-((S)-1-(4-(4-methylthiazol-5-yl)phenyl)ethyl)pyrrolidine-2-carboxamide] | 15% | 96% | < 250 nM | < 100 nM |
